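How tested: cells in 96-well plates exposed to compound for 48 hours at five concentrations. GI50 marks 50% less growth.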 The source made the active and inactive calls. No stated cut-off is given here; in the data, active = GI50 up to about 1.1 µM and inactive = higher.
What was measured:
Experiment in all cases: inhibition of tumour cell growth, NCI panel, 48 h
[1] = system: HL-60
[2] = system: MOLT-4
[3] = system: UO-31
[4] = system: HT-29
[5] = system: NCI-H23
[6] = system: EKVX
[7] = system: U-251
[8] = system: SNB-19
[9] = system: SF-295
[10] = system: NCI-H522
[11] = system: NCI-H226
[12] = system: M14
[13] = system: OVCAR-5
[14] = system: RXF 393
[15] = system: OVCAR-4
[16] = system: 786-0
[17] = system: HCC 2998

Measured: GI50

COc1ccc(/C(Cl)=C(\CN(C)C)c2ccc(OC)c(OC)c2)cc1OC
inactive: [1] 21.2 µM | [2] > 100 µM | [3] > 100 µM | [4] > 100 µM | [5] > 100 µM | [6] > 100 µM | [7] > 100 µM | [8] > 100 µM | [9] > 100 µM | [10] > 100 µM | [11] > 100 µM

CC(=O)OC1CCn2nnc(CO[Si](C)(C)C(C)(C)C)c21 (stereo not drawn)
inactive: [12] > 100 µM | [2] > 100 µM | [3] > 100 µM | [4] > 100 µM | [5] > 100 µM | [13] > 100 µM | [6] > 100 µM | [7] > 100 µM | [14] > 100 µM | [8] > 100 µM | [9] > 100 µM | [15] > 100 µM | [10] > 100 µM | [16] > 100 µM | [11] > 100 µM | [17] > 100 µM

OC1=CN=C(c2ccccc2)Oc2ccccc21
inactive: [1] > 100 µM | [12] > 100 µM | [2] > 100 µM | [3] > 100 µM | [4] > 100 µM | [5] > 100 µM | [6] > 100 µM | [7] > 100 µM | [14] > 100 µM | [8] 42.5 µM | [9] 32 µM | [15] 47.6 µM | [16] 46.7 µM | [11] 33 µM | [17] > 100 µM

COC(=O)N/N=C(\C)C(CN1CCCCC1)C(C1=C(O)c2ccccc2OC1)c1ccccc1 (stereo not drawn)
inactive: [1] > 100 µM | [12] > 100 µM | [2] > 100 µM | [3] 72.4 µM | [4] > 100 µM | [5] > 100 µM | [13] > 100 µM | [6] > 100 µM | [7] 43.1 µM | [14] 17.9 µM | [8] > 100 µM | [9] > 100 µM | [15] > 100 µM | [10] > 100 µM | [16] > 100 µM | [11] > 100 µM

Cc1cc(N(CCC#N)S(=O)(=O)c2ccccc2)ccc1/C=C1\N=C(c2ccc(Cl)cc2)OC1=O
inactive: [1] > 100 µM | [12] > 100 µM | [2] > 100 µM | [3] > 100 µM | [4] > 100 µM | [5] > 100 µM | [13] > 100 µM | [6] > 100 µM | [7] 54 µM | [14] > 100 µM | [8] > 100 µM | [9] > 100 µM | [15] > 100 µM | [16] > 100 µM | [11] 38.1 µM | [17] > 100 µM

CN(O)C(=O)Cc1ccccc1
inactive: [1] > 100 µM | [12] > 100 µM | [2] > 100 µM | [3] > 100 µM | [4] > 100 µM | [5] > 100 µM | [13] > 100 µM | [7] > 100 µM | [14] > 100 µM | [8] > 100 µM | [9] > 100 µM | [15] > 100 µM | [10] > 100 µM | [16] > 100 µM | [11] > 100 µM | [17] > 100 µM

CCOC(=O)C=C1CCN(C(=O)c2ccccc2)CC1
inactive: [1] > 100 µM | [12] > 100 µM | [2] > 100 µM | [3] > 100 µM | [4] > 100 µM | [5] > 100 µM | [13] > 100 µM | [6] > 100 µM | [7] > 100 µM | [14] > 100 µM | [8] > 100 µM | [9] > 100 µM | [15] > 100 µM | [16] > 100 µM | [17] > 100 µM

COc1ccc2c(c1)N1CCc3cc(OC)c(OC)cc3C1C2 (stereo not drawn)
inactive: [1] 26.2 µM | [2] 26 µM | [3] 85.9 µM | [4] 70.3 µM | [5] 50.1 µM | [6] > 100 µM | [7] > 100 µM | [14] 65 µM | [8] > 100 µM | [9] 88.7 µM | [15] 33.8 µM | [10] 23.7 µM | [16] 54.6 µM | [11] 35.5 µM | [17] 51.1 µM

O=C(CC1=Nc2nnc(CCCCCCCc3nnc4n3C(=O)C(CC(=O)c3ccccc3)=N4)n2C1=O)c1ccccc1
inactive: [1] > 100 µM | [12] > 100 µM | [2] > 100 µM | [3] > 100 µM | [4] > 100 µM | [5] > 100 µM | [13] > 100 µM | [6] > 100 µM | [7] > 100 µM | [14] > 100 µM | [8] > 100 µM | [9] > 100 µM | [10] > 100 µM | [16] > 100 µM | [11] > 100 µM | [17] > 100 µM

O=c1[nH]c(=O)n(C2CC(O)C(CO)O2)cc1C#Cc1ccc(F)cc1 (stereo not drawn)
inactive: [12] > 100 µM | [2] > 100 µM | [3] > 100 µM | [4] > 100 µM | [5] > 100 µM | [13] > 100 µM | [6] > 100 µM | [7] > 100 µM | [8] > 100 µM | [9] > 100 µM | [15] 25.8 µM | [10] > 100 µM | [16] > 100 µM | [11] > 100 µM | [17] > 100 µM

O=C(Nc1ccc2[nH]c3c(-c4ccccc4)nccc3c2c1)c1ccccc1[N+](=O)[O-]
inactive: [1] 3.48 µM | [12] 2.99 µM | [2] 2.22 µM | [4] 1.85 µM | [5] 4.37 µM | [13] 2.17 µM | [6] 3.22 µM | [7] 2.96 µM | [14] 1.83 µM | [8] 5.58 µM | [9] 1.64 µM | [15] 36.9 µM | [11] 2.3 µM | [17] 3.58 µM

COC(=O)C(C)NP(=O)(N1CC1)N1CC1 (stereo not drawn)
inactive: [1] 32.7 µM | [12] 83 µM | [2] 40.3 µM | [3] > 100 µM | [4] > 100 µM | [5] 97.3 µM | [13] > 100 µM | [6] > 100 µM | [7] > 100 µM | [14] > 100 µM | [8] > 100 µM | [9] 92.5 µM | [15] > 100 µM | [10] > 100 µM | [17] > 100 µM

Cc1ccc(NC(=O)CSc2nnc(-c3ccc(/N=C\c4ccc(Cl)cc4)cc3)o2)cc1
inactive: [1] > 100 µM | [12] > 100 µM | [2] > 100 µM | [3] > 100 µM | [4] > 100 µM | [5] > 100 µM | [6] > 100 µM | [7] > 100 µM | [14] > 100 µM | [8] > 100 µM | [9] > 100 µM | [15] > 100 µM | [10] 34.3 µM | [16] > 100 µM | [11] > 100 µM

Cc1ccc(C)c(NC(=O)CCC(=O)CC(=O)C(C)(C)C)c1
inactive: [12] > 100 µM | [2] > 100 µM | [3] > 100 µM | [4] > 100 µM | [5] > 100 µM | [13] > 100 µM | [6] > 100 µM | [7] > 100 µM | [14] > 100 µM | [8] > 100 µM | [15] > 100 µM | [10] > 100 µM | [16] > 100 µM | [17] > 100 µM

O=C1[C@@H]2C(c3ccncc3)=NO[C@@H]2C(=O)N1c1ccc(Cc2ccc(N3C(=O)[C@H]4C(c5ccncc5)=NO[C@H]4C3=O)cc2)cc1
inactive: [1] > 100 µM | [12] > 100 µM | [2] > 100 µM | [3] > 100 µM | [4] > 100 µM | [5] > 100 µM | [13] > 100 µM | [6] > 100 µM | [7] > 100 µM | [14] > 100 µM | [9] > 100 µM | [15] > 100 µM | [16] > 100 µM | [11] 73.8 µM | [17] > 100 µM

COC(=O)C(C(=O)C(=O)Nc1ccccc1OC)c1csc(-n2nc(-c3ccccc3)cc2-c2ccccc2)n1 (stereo not drawn)
inactive: [1] > 100 µM | [12] > 100 µM | [2] 65.2 µM | [3] 54.7 µM | [4] 59.3 µM | [5] > 100 µM | [13] > 100 µM | [6] 43.1 µM | [7] > 100 µM | [14] 89.5 µM | [8] > 100 µM | [15] > 100 µM | [10] > 100 µM | [16] > 100 µM | [11] > 100 µM | [17] > 100 µM

CCOC(=O)c1nc(C)oc1C(F)(F)F
inactive: [1] > 100 µM | [12] > 100 µM | [2] > 100 µM | [3] > 100 µM | [4] > 100 µM | [5] > 100 µM | [13] > 100 µM | [6] > 100 µM | [7] > 100 µM | [14] > 100 µM | [8] > 100 µM | [9] > 100 µM | [15] > 100 µM | [10] > 100 µM | [16] > 100 µM | [11] > 100 µM | [17] > 100 µM

OC(CCl)CN1CC[N+]2(CC1)CC[N+]1(CCN(CC(O)CCl)CC1)CC2 (stereo not drawn) [PROSPIDIUM CHLORIDE]
inactive: [1] > 50 µM | [12] > 50 µM | [2] > 50 µM | [3] > 50 µM | [4] > 50 µM | [5] > 50 µM | [6] > 50 µM | [7] > 50 µM | [14] > 50 µM | [8] > 50 µM | [9] > 50 µM | [15] > 50 µM | [10] > 50 µM | [16] > 50 µM | [11] > 50 µM | [17] > 50 µM

— ChEMBL document CHEMBL1201862, “PubChem BioAssay data set” (2004)
